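Interpolation was linear, between the two tested concentrations surrounding the appropriate level; five concentrations were tested over 48 hours in 96-well plates. GI50: concentration for 50% inhibition of growth.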 Activity calls are given as the source filed them. Cut-off read from the data, not from the text of the source: active = GI50 up to about 1.1 µM and inactive = higher.
Key:
Experiment in all cases: NCI anticancer screen, dose series, 48 h
HOP-62 = tested on: HOP-62
Malme-3M = tested on: Malme-3M
SF-539 = tested on: SF-539
SF-268 = tested on: SF-268
T47D = tested on: T47D
A549 = tested on: A549
SK-MEL-2 = tested on: SK-MEL-2
HCT-116 = tested on: HCT-116
OVCAR-5 = tested on: OVCAR-5
SF-295 = tested on: SF-295
SW-620 = tested on: SW-620
U-251 = tested on: U-251
NCI-H23 = tested on: NCI-H23
MDA-N = tested on: MDA-N
Hs-578T = tested on: Hs-578T
SNB-19 = tested on: SNB-19
SK-MEL-28 = tested on: SK-MEL-28
MOLT-4 = tested on: MOLT-4
DU-145 = tested on: DU-145
UACC-62 = tested on: UACC-62
NCI-H522 = tested on: NCI-H522
EKVX = tested on: EKVX
MDA-MB-231 = tested on: MDA-MB-231
ACHN = tested on: ACHN
CCRF-CEM = tested on: CCRF-CEM
SNB-75 = tested on: SNB-75
SN12C = tested on: SN12C
TK-10 = tested on: TK-10
NCI/ADR-RES = tested on: NCI/ADR-RES
COLO 205 = tested on: COLO 205
CAKI-1 = tested on: CAKI-1
HT-29 = tested on: HT-29
UO-31 = tested on: UO-31
786-0 = tested on: 786-0
SK-OV-3 = tested on: SK-OV-3
KM12 = tested on: KM12
A498 = tested on: A498
NCI-H460 = tested on: NCI-H460
M14 = tested on: M14
MDA-MB-435 = tested on: MDA-MB-435
UACC-257 = tested on: UACC-257
SK-MEL-5 = tested on: SK-MEL-5
MCF7 = tested on: MCF7
NCI-H226 = tested on: NCI-H226
HCC 2998 = tested on: HCC 2998
HL-60 = tested on: HL-60
PC-3 = tested on: PC-3
RPMI-8226 = tested on: RPMI-8226
OVCAR-3 = tested on: OVCAR-3
OVCAR-4 = tested on: OVCAR-4
BT-549 = tested on: BT-549
HCT-15 = tested on: HCT-15
OVCAR-8 = tested on: OVCAR-8
RXF 393 = tested on: RXF 393
K562 = tested on: K562
LOX IMVI = tested on: LOX IMVI
IGROV-1 = tested on: IGROV-1
HOP-92 = tested on: HOP-92

COc1cc2c(cc1OC)C1=Cc3ccc(OC)c(OC)c3C(C#N)N1CC2 (stereo not given)
GI50 (HOP-62): 42.4 µM (inactive)
GI50 (Malme-3M): 22.4 µM (inactive)
GI50 (SF-539): 13.8 µM (inactive)
GI50 (SF-268): 29.7 µM (inactive)
GI50 (T47D): 9.2 µM (inactive)
GI50 (A549): 56.4 µM (inactive)
GI50 (SK-MEL-2): 19.7 µM (inactive)
GI50 (HCT-116): 36.1 µM (inactive)
GI50 (OVCAR-5): > 100 µM (inactive)
GI50 (SF-295): 37.1 µM (inactive)
GI50 (SW-620): 47.6 µM (inactive)
GI50 (U-251): 21.6 µM (inactive)
GI50 (NCI-H23): 29.8 µM (inactive)
GI50 (MDA-N): 33.7 µM (inactive)
GI50 (Hs-578T): 35.8 µM (inactive)
GI50 (SNB-19): 41.3 µM (inactive)
GI50 (SK-MEL-28): 32.4 µM (inactive)
GI50 (MOLT-4): 33.1 µM (inactive)
GI50 (DU-145): 39.7 µM (inactive)
GI50 (UACC-62): 17.1 µM (inactive)
GI50 (NCI-H522): 30 µM (inactive)
GI50 (EKVX): 96.8 µM (inactive)
GI50 (MDA-MB-231): 28.8 µM (inactive)
GI50 (ACHN): > 100 µM (inactive)
GI50 (CCRF-CEM): 37.9 µM (inactive)
GI50 (SNB-75): 5.22 µM (inactive)
GI50 (SN12C): 35.2 µM (inactive)
GI50 (TK-10): > 100 µM (inactive)
GI50 (NCI/ADR-RES): > 100 µM (inactive)
GI50 (COLO 205): 18.2 µM (inactive)
GI50 (CAKI-1): > 100 µM (inactive)
GI50 (HT-29): 33.7 µM (inactive)
GI50 (UO-31): > 100 µM (inactive)
GI50 (786-0): 78.5 µM (inactive)
GI50 (SK-OV-3): > 100 µM (inactive)
GI50 (KM12): 21.1 µM (inactive)
GI50 (A498): > 100 µM (inactive)
GI50 (NCI-H460): 31.7 µM (inactive)
GI50 (M14): 50.2 µM (inactive)
GI50 (MDA-MB-435): 25.9 µM (inactive)
GI50 (UACC-257): 17.7 µM (inactive)
GI50 (SK-MEL-5): 17.2 µM (inactive)
GI50 (MCF7): 29.7 µM (inactive)
GI50 (NCI-H226): > 100 µM (inactive)
GI50 (HCC 2998): 18.5 µM (inactive)
GI50 (HL-60): 39 µM (inactive)
GI50 (PC-3): 32.4 µM (inactive)
GI50 (RPMI-8226): 20.7 µM (inactive)
GI50 (OVCAR-3): 34.2 µM (inactive)
GI50 (OVCAR-4): 67 µM (inactive)
GI50 (BT-549): 14.6 µM (inactive)
GI50 (HCT-15): > 100 µM

O=C1CC(c2cccc(F)c2)Nc2cc3c(cc21)OCO3 (stereo not given)
GI50 (HOP-62): 7.38 µM (inactive)
GI50 (Malme-3M): 0.0327 µM (active)
GI50 (SF-539): 0.0293 µM (active)
GI50 (SF-268): 0.0914 µM (active)
GI50 (T47D): > 100 µM (inactive)
GI50 (A549): 0.0363 µM (active)
GI50 (SK-MEL-2): 0.0356 µM (active)
GI50 (HCT-116): 0.0533 µM (active)
GI50 (OVCAR-5): 0.054 µM (active)
GI50 (SF-295): 0.042 µM (active)
GI50 (SW-620): 0.0393 µM (active)
GI50 (U-251): 0.0344 µM (active)
GI50 (NCI-H23): 0.0335 µM (active)
GI50 (MDA-N): 0.0113 µM (active)
GI50 (Hs-578T): < 0.01 µM (active)
GI50 (SNB-19): 0.0365 µM (active)
GI50 (OVCAR-8): 0.0568 µM (active)
GI50 (MOLT-4): < 0.01 µM (active)
GI50 (DU-145): 0.0385 µM (active)
GI50 (UACC-62): 0.0543 µM (active)
GI50 (NCI-H522): 0.0208 µM (active)
GI50 (EKVX): < 0.01 µM (active)
GI50 (MDA-MB-231): 0.149 µM (active)
GI50 (ACHN): 0.0649 µM (active)
GI50 (CCRF-CEM): 0.033 µM (active)
GI50 (SN12C): 0.0509 µM (active)
GI50 (TK-10): 1.13 µM (inactive)
GI50 (NCI/ADR-RES): 0.027 µM (active)
GI50 (COLO 205): 0.0292 µM (active)
GI50 (CAKI-1): 0.051 µM (active)
GI50 (HT-29): 0.0237 µM (active)
GI50 (RXF 393): 0.0247 µM (active)
GI50 (UO-31): 0.0422 µM (active)
GI50 (786-0): 0.0468 µM (active)
GI50 (SK-OV-3): 0.0955 µM (active)
GI50 (KM12): 0.0463 µM (active)
GI50 (A498): < 0.01 µM (active)
GI50 (NCI-H460): 0.0418 µM (active)
GI50 (M14): 0.0267 µM (active)
GI50 (MDA-MB-435): 0.0136 µM (active)
GI50 (UACC-257): 0.0638 µM (active)
GI50 (SK-MEL-5): 0.0224 µM (active)
GI50 (MCF7): 0.0472 µM (active)
GI50 (K562): < 0.01 µM (active)
GI50 (NCI-H226): 0.027 µM (active)
GI50 (HCC 2998): 0.0593 µM (active)
GI50 (LOX IMVI): 0.0631 µM (active)
GI50 (PC-3): 0.0301 µM (active)
GI50 (RPMI-8226): < 0.01 µM (active)
GI50 (OVCAR-3): 0.0521 µM (active)
GI50 (OVCAR-4): 1.8 µM (inactive)
GI50 (BT-549): > 10 µM (inactive)
GI50 (IGROV-1): 0.0483 µM (active)
GI50 (HOP-92): 0.531 µM (active)
GI50 (HCT-15): 0.0394 µM

CC(=O)CC1CCC(=O)CCC(=O)OC(CC(C)=O)CCC(=O)CCC(=O)O1 (stereo not given)
GI50 (HOP-62): > 100 µM (inactive)
GI50 (Malme-3M): > 100 µM (inactive)
GI50 (SF-539): > 100 µM (inactive)
GI50 (SF-268): > 100 µM (inactive)
GI50 (T47D): > 100 µM (inactive)
GI50 (A549): > 100 µM (inactive)
GI50 (HCT-116): > 100 µM (inactive)
GI50 (OVCAR-5): > 100 µM (inactive)
GI50 (SF-295): > 100 µM (inactive)
GI50 (SW-620): > 100 µM (inactive)
GI50 (U-251): > 100 µM (inactive)
GI50 (NCI-H23): > 100 µM (inactive)
GI50 (MDA-N): > 100 µM (inactive)
GI50 (Hs-578T): > 100 µM (inactive)
GI50 (SNB-19): > 100 µM (inactive)
GI50 (OVCAR-8): > 100 µM (inactive)
GI50 (SK-MEL-28): > 100 µM (inactive)
GI50 (MOLT-4): > 100 µM (inactive)
GI50 (DU-145): > 100 µM (inactive)
GI50 (UACC-62): > 100 µM (inactive)
GI50 (NCI-H522): > 100 µM (inactive)
GI50 (EKVX): > 100 µM (inactive)
GI50 (MDA-MB-231): > 100 µM (inactive)
GI50 (ACHN): > 100 µM (inactive)
GI50 (CCRF-CEM): > 100 µM (inactive)
GI50 (SNB-75): > 100 µM (inactive)
GI50 (SN12C): > 100 µM (inactive)
GI50 (TK-10): > 100 µM (inactive)
GI50 (NCI/ADR-RES): > 100 µM (inactive)
GI50 (COLO 205): > 100 µM (inactive)
GI50 (HT-29): > 100 µM (inactive)
GI50 (RXF 393): > 100 µM (inactive)
GI50 (786-0): > 100 µM (inactive)
GI50 (SK-OV-3): > 100 µM (inactive)
GI50 (KM12): > 100 µM (inactive)
GI50 (NCI-H460): > 100 µM (inactive)
GI50 (M14): > 100 µM (inactive)
GI50 (MDA-MB-435): > 100 µM (inactive)
GI50 (UACC-257): > 100 µM (inactive)
GI50 (SK-MEL-5): > 100 µM (inactive)
GI50 (MCF7): > 100 µM (inactive)
GI50 (K562): > 100 µM (inactive)
GI50 (NCI-H226): > 100 µM (inactive)
GI50 (HCC 2998): > 100 µM (inactive)
GI50 (HL-60): > 100 µM (inactive)
GI50 (PC-3): > 100 µM (inactive)
GI50 (RPMI-8226): > 100 µM (inactive)
GI50 (OVCAR-3): > 100 µM (inactive)
GI50 (OVCAR-4): > 100 µM (inactive)
GI50 (BT-549): > 100 µM (inactive)
GI50 (IGROV-1): > 100 µM (inactive)
GI50 (HOP-92): > 100 µM (inactive)
GI50 (HCT-15): > 100 µM

From ChEMBL document CHEMBL1201862, “PubChem BioAssay data set” (2004)
